# According to US8530462B2, “Indole modulators of S1P receptors” (Allergan, Inc., priority 2010, dated 2013):
# Biological target: T1, human S1P1 receptor (Homo sapiens, UniProt P21453)
# T1 construct: expressed in transfected cells; membranes were used
# Test: GTP γ35S binding assay, S1P1 receptor activity
# Format: biochemical
# Settings: for % stimulation: S1P1 receptor, agonist-induced stimulation; for EC50: membranes of cells stably expressing the S1P1 receptor, test compounds 0.08 to 5,000 nM
# Procedure: The S1P1 activity of the compounds according to the invention, were tested using the GTP γ^35S binding assay. The compounds were assessed for their ability to activate or block activation of the human S1P1 receptor in cells stably expressing the S1P1 receptor.
# GTP γ^35S binding was measured in the medium containing (mM) HEPES 25, pH 7.4, MgCl2 10, NaCl 100, dithitothreitol 0.5, digitonin 0.003%, 0.2 nM GTP γ^35S, and 5 μg membrane protein in a volume of 150 μl. Test compounds were included in the concentration range from 0.08 to 5,000 nM unless indicated otherwise. Membranes were incubated with 100 μM 5′-adenylylimmidodiphosphate for 30 min, and subsequently with 10 μM GDP for 10 min on ice. Drug solutions and membrane were mixed, and then reactions were initiated by adding GTP γ^35S and continued for 30 min at 25° C. Reaction mixtures were filtered over Whatman GF/B filters under vacuum, and washed three times with 3 mL of ice-cold buffer (HEPES 25, pH7.4, MgCl2 10 and NaCl 100). Filters were dried and mixed with scintillant, and counted for ^35S activity using a β-counter. Agonist-induced GTP γ^35S binding was obtained by subtracting that in the absence of agonist. Binding data were analyzed using a non-linear regression method. In case of antagonist assay, the reaction mixture contained 10 nM S1P in the presence of test antagonist at concentrations ranging from 0.08 to 5000 nM.
# Activity potency: S1P1 receptor from GTP γ^35S: nM, (EC50), % stimulation, […]
# T1 sequence (P21453 whole entry): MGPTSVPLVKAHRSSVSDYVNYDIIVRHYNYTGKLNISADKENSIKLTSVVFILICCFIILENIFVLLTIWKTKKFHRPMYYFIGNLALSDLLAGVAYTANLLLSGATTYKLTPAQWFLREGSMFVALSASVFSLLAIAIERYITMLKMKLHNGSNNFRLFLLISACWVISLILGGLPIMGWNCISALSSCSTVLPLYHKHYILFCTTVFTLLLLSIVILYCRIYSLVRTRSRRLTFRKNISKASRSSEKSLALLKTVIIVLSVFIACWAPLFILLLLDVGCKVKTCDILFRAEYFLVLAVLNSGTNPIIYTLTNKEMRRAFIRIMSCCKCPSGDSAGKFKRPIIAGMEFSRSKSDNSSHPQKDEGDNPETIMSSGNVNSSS
Structure (SMILES),% stimulation,EC50
"Cc1ccc(Cn2cc(-c3nc(-c4ccc(CN5CC(C(=O)O)C5)cc4)no3)c3cc(F)ccc32)cc1C [Compound 2, 1-(4-{5-[1-(3,4-dimethylbenzyl)-5-fluoro-1H-indol-3-yl]-1,2,4-oxadiazol-3-yl}benzyl)azetidine-3-carboxylic acid]",94%,737 nM
"CNc1ncccc1-c1noc(-c2cn(Cc3ccc(C)c(C)c3)c3ccc(F)cc23)n1 [Compound 11, 3-{5-[1-(3,4-dimethylbenzyl)-5-fluoro-1H-indol-3-yl]-1,2,4-oxadiazol-3-yl}-N-methylpyridin-2-amine]",–,569 nM
"Cc1ccc2c(c1)c(-c1nc(-c3ccc(CNCCC(=O)O)cc3)no1)cn2Cc1ccc(C)c(C)c1 [Compound 13, 3-[(4-{5-[1-(3,4-dimethylbenzyl)-5-methyl-1H-indol-3-yl]-1,2,4-oxadiazol-3-yl}benzyl)amino]propanoic acid]",82%,351 nM
"Cc1ccc(Cn2cc(-c3nc(-c4ccc(CNCCC(=O)O)cc4)no3)c3ccccc32)cc1C [Compound 16, 3-[(4-{5-[1-(3,4-dimethylbenzyl)-1H-indol-3-yl]-1,2,4-oxadiazol-3-yl}benzyl)amino]propanoic acid]",81%,1440 nM
"Cc1ccc2c(c1)c(-c1nc(-c3ccc(CN4CC(C(=O)O)C4)cc3)no1)cn2Cc1ccc(C)c(C)c1 [Compound 1, 1-(4-{5-[1-(3,4-dimethylbenzyl)-5-methyl-1H-indol-3-yl]-1,2,4-oxadiazol-3-yl}benzyl)azetidine-3-carboxylic acid]",92%,426 nM
"Cc1ccc(Cn2cc(-c3nc(-c4ccc(CNCCC(=O)O)cc4)no3)c3cc(F)ccc32)cc1C [Compound 14, 3-[(4-{5-[1-(3,4-dimethylbenzyl)-5-fluoro-1H-indol-3-yl]-1,2,4-oxadiazol-3-yl}benzyl)amino]propanoic acid]",93%,1490 nM
"O=C(O)CCNCc1ccc(-c2noc(-c3cn(Cc4ccccc4)c4ccccc34)n2)cc1 [Compound 12, 3-({4-[5-(1-benzyl-1H-indol-3-yl)-1,2,4-oxadiazol-3-yl]benzyl}amino)propanoic acid]",–,394 nM
"COc1ccc2c(c1)c(-c1nc(-c3ccc(CN4CC(C(=O)O)C4)cc3)no1)c(C)n2Cc1ccc(C)c(C)c1 [Compound 3, 1-(4-{5-[1-(3,4-dimethylbenzyl)-5-methoxy-2-methyl-1H-indol-3-yl]-1,2,4-oxadiazol-3-yl}benzyl)azetidine-3-carboxylic acid]",82%,1560 nM
"Cc1ccc(Cn2c(C)c(-c3nc(-c4ccc(CN5CC(C(=O)O)C5)cc4)no3)c3cc(F)ccc32)cc1C [Compound 9, 1-(4-{5-[1-(3,4-dimethylbenzyl)-5-fluoro-2-methyl-1H-indol-3-yl]-1,2,4-oxadiazol-3-yl}benzyl)azetidine-3-carboxylic acid]",85%,1000 nM
"O=C(O)CCNCc1ccc(-c2noc(-c3cn(Cc4ccccc4)c4ccc(F)cc34)n2)cc1 [Compound 17, 3-({4-[5-(1-benzyl-5-fluoro-1H-indol-3-yl)-1,2,4-oxadiazol-3-yl]benzyl}amino)propanoic acid]",100%,129 nM
"Cc1ccc(Cn2cc(-c3nc(-c4ccc(CN5CC(C(=O)O)C5)cc4)no3)c3ccccc32)cc1C [Compound 4, 1-(4-{5-[1-(3,4-dimethylbenzyl)-1H-indol-3-yl]-1,2,4-oxadiazol-3-yl}benzyl)azetidine-3-carboxylic acid]",92%,1020 nM
"O=C(O)C1CN(Cc2ccc(-c3noc(-c4cn(Cc5ccccc5)c5ccccc45)n3)cc2)C1 [Compound 8, 1-{4-[5-(1-benzyl-1H-indol-3-yl)-1,2,4-oxadiazol-3-yl]benzyl}azetidine-3-carboxylic acid]",66%,494 nM
"O=C(O)CCCCNCc1ccc(-c2noc(-c3cn(Cc4ccccc4)c4ccccc34)n2)cc1 [Compound 15, 5-({4-[5-(1-benzyl-1H-indol-3-yl)-1,2,4-oxadiazol-3-yl]benzyl}amino)pentanoic acid]",108%,1010 nM
"O=C(O)C1CN(Cc2ccc(-c3noc(-c4cn(Cc5ccccc5)c5ccc(F)cc45)n3)cc2)C1 [Compound 5, 1-{4-[5-(1-benzyl-5-fluoro-1H-indol-3-yl)-1,2,4-oxadiazol-3-yl]benzyl}azetidine-3-carboxylic acid]",91%,189 nM
"c1ccc(Cn2cc(-c3nc(-c4ccc(Cn5ccnc5)cc4)no3)c3ccccc32)cc1 [Compound 6, 1-benzyl-3-{3-[4-(1H-imidazol-1-ylmethyl)phenyl]-1,2,4-oxadiazol-5-yl}-1H-indole]",86%,1160 nM
"CNc1ncccc1-c1noc(-c2cn(Cc3ccccc3)c3ccccc23)n1 [Compound 10, 3-[5-(1-benzyl-1H-indol-3-yl)-1,2,4-oxadiazol-3-yl]-N-methylpyridin-2-amine]",88%,703 nM
